Test results: ChEMBL document CHEMBL3352323, “Lead optimization of a pyrazole sulfonamide series of Trypanosoma brucei N-myristoyltransferase inhibitors: identification and evaluation of CNS penetrant compounds as potential treatments for stage 2 human African trypanosomiasis” (J Med Chem, 2014)
The source made the active and inactive calls. The calls are words filed in the database; no cut-off is given here.

Key:
MRC5 = assay: cells; details: Homo sapiens, MRC5, 69 h
Description: Antiproliferative activity against human MRC5 cells assessed as reduction cell viability incubated for 69 hrs by rezasurin dye based assay

Trypanosoma brucei = assay: microbe, parasite or virus in culture; details: BSF427, 69 h
Description: Antitrypanosomal activity against Trypanosoma brucei BSF427 expressing VSG118 infected in human MRC5 cells assessed as reduction cell viability incubated for 69 hrs by rezasurin dye based assay

[1] = Inhibition of Trypanosoma brucei N-myristoyltransferase assessed as transfer of [3H]-myristic acid to a biotinylated substrate peptide (GCGGSKVKPQPPQAK(biotin)-amide by scintillation proximity assay
[2] = target: T1, Glycylpeptide N-tetradecanoyltransferase 1 (Homo sapiens, UniProt P30419); assay: Inhibition of human N-myristoyltransferase 1 assessed as transfer of [3H]-myristic acid to a biotinylated substrate peptide (GCGGSKVKPQPPQAK(biotin)-amide by scintillation proximity assay
T1 sequence (P30419 whole entry): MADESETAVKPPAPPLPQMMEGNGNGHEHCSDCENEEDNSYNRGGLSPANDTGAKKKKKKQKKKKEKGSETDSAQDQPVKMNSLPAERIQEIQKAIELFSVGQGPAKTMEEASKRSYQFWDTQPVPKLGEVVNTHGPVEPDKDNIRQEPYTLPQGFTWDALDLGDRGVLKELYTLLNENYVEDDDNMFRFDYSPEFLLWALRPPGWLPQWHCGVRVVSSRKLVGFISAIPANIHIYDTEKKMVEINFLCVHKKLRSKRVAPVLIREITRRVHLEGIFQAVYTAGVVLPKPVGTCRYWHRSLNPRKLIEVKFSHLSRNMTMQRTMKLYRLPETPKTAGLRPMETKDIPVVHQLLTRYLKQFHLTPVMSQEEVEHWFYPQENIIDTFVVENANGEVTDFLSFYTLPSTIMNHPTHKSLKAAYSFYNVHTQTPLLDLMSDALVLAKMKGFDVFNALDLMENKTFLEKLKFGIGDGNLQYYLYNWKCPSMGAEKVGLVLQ

[3] = Selectivity index, IC50 for human N-myristoyltransferase to EC50 for Trypanosoma brucei; type: functional
[4] = target: Voltage-gated inwardly rectifying potassium channel KCNH2 (Homo sapiens, UniProt Q12809); assay: Inhibition of human ERG
Sequence of Voltage-gated inwardly rectifying potassium channel KCNH2 (Q12809 whole entry): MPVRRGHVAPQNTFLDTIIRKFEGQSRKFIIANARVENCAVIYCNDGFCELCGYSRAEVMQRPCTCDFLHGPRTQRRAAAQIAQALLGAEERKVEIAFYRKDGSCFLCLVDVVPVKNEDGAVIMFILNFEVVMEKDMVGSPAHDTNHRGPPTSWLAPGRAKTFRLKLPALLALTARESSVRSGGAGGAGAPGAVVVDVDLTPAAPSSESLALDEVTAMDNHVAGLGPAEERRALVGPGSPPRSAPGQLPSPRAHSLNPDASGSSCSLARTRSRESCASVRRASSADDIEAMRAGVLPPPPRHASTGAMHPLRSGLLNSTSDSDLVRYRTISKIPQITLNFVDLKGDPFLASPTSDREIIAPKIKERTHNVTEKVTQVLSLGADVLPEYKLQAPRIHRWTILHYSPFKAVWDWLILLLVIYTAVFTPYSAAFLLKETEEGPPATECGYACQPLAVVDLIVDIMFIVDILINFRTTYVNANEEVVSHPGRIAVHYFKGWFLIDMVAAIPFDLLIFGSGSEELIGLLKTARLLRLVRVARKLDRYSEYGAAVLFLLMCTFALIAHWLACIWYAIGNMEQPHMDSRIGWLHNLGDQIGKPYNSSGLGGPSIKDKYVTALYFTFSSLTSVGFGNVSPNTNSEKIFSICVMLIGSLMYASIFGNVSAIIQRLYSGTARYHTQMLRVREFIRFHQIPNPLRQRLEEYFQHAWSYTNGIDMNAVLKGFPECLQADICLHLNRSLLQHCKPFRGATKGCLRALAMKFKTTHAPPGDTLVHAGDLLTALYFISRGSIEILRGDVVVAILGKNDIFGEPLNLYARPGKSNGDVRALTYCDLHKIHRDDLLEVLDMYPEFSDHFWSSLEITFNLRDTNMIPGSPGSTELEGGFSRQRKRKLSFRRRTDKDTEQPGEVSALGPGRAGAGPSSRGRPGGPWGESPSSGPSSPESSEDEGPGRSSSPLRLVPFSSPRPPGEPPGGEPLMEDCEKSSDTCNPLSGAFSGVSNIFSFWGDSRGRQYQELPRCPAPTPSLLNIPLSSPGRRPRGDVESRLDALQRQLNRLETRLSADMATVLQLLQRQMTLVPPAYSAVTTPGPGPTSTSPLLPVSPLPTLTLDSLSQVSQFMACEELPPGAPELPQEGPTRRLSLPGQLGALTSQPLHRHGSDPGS

[5] = system: Trypanosoma brucei brucei; assay: Trypanocidal activity against bloodstream form of Trypanosoma brucei beucei GVR35 infected in NMRI mouse stage 2 human African trypanosomiasis model at 100 mg/kg, po bid for 8 days followed by three rounds of 3 day dosing at 100 mg/kg with two day drug holiday between rounds; type: functional, organism-based
Mus musculus [6] = assay: Toxicity in bloodstream form of Trypanosoma brucei beucei GVR35 infected NMRI mouse stage 2 human African trypanosomiasis model at 100 mg/kg, po bid for 5 days; type: organism-based; set-up: dose 100 mg/kg, route oral; details: in vivo, 120 h
Mus musculus [7] = assay: (§1) Maximum tolerated dose in orally twice daily dosed mouse; type: ADME, organism-based; details: in vivo, po
Mus musculus [8] = assay: Toxicity in bloodstream form of Trypanosoma brucei beucei GVR35 infected NMRI mouse stage 2 human African trypanosomiasis model at 150 mg/kg, po bid for 5 days; type: organism-based; set-up: dose 150 mg/kg, route oral; details: in vivo, 120 h
[9] = as §1; type: ADME, organism-based; details: in vivo, po
[10] = system: Trypanosoma brucei brucei; assay: Trypanocidal activity against bloodstream form of Trypanosoma brucei beucei GVR35 infected in NMRI mouse stage 2 human African trypanosomiasis model at 150 mg/kg, po bid for 5 days; type: functional, organism-based; set-up: dose 150 mg/kg
Mus musculus [11] = assay: Oral bioavailability in NMRI mouse at 10 mg/kg by UPLC-MS/MS method; type: ADME, organism-based; details: in vivo
Mus musculus [12] = assay: AUC (0 to 8 hrs) in NMRI mouse at 10 mg/kg, po by UPLC-MS/MS method; type: ADME, organism-based, Plasma; set-up: time < 8 hr, dose 10 mg/kg, route oral; details: in vivo
[13] = system: Trypanosoma brucei brucei; assay: Trypanocidal activity against bloodstream form of Trypanosoma brucei brucei S427 infected in mouse stage 1 HAT model at […], po bid for 4 days; type: functional, organism-based
[14] = Plasma protein binding in mouse; type: ADME, organism-based; details: read-out: PPB (converted)
[15] = system: Trypanosoma brucei rhodesiense; assay: Trypanocidal activity against bloodstream form of Trypanosoma brucei rhodesiense STIB900 infected in twice daily po dosed mouse; type: functional
[16] = system: Trypanosoma brucei rhodesiense; assay: Trypanocidal activity against bloodstream form of Trypanosoma brucei rhodesiense STIB900 infected in mouse stage 1 HAT model at 50 mg/kg, po bid for 4 days; type: functional, organism-based; set-up: dose 50 mg/kg
[17] = system: Trypanosoma brucei brucei; assay: Trypanocidal activity against bloodstream form of Trypanosoma brucei beucei GVR35 infected in NMRI mouse stage 2 human African trypanosomiasis model at 25 mg/kg, po bid for 10 days; type: functional, organism-based; set-up: dose 25 mg/kg
[18] = system: Trypanosoma brucei brucei; assay: Trypanocidal activity against Trypanosoma brucei beucei S427 infected in NMRI mouse acute model dosed twice daily orally for 4 days; type: functional
[19] = system: Trypanosoma brucei brucei; assay: Trypanocidal activity against Trypanosoma brucei beucei GVR35 infected in NMRI mouse acute model dosed twice daily orally for 4 days; type: functional
Mus musculus [20] = assay: Toxicity in bloodstream form of Trypanosoma brucei beucei GVR35 infected NMRI mouse stage 2 human African trypanosomiasis model at 50 mg/kg, po bid for 5 days; type: organism-based; set-up: dose 50 mg/kg, route oral; details: in vivo, 120 h
[21] = system: Trypanosoma brucei brucei; assay: Trypanocidal activity against bloodstream form of Trypanosoma brucei beucei GVR35 infected in NMRI mouse stage 2 human African trypanosomiasis model at 50 mg/kg, po bid for 8 days; type: functional, organism-based; set-up: dose 50 mg/kg
Mus musculus [22] = assay: Toxicity in bloodstream form of Trypanosoma brucei beucei GVR35 infected NMRI mouse stage 2 human African trypanosomiasis model at 50 mg/kg, po bid for 8 days; type: organism-based; set-up: dose 50 mg/kg, route oral; details: in vivo, 192 h
[23] = Ratio of drug level in brain to blood in wild type NMRI mouse at 2 mg free base/kg, iv by UPLC-MS/MS method; type: ADME, organism-based; details: brain and blood, read-out: BBR
[24] = Ratio of drug level in brain to blood in mdr1a-deficient mouse; type: ADME, organism-based; details: brain and blood, read-out: BBR

Structure (SMILES) | EC50 (MRC5) [nM] | EC50 (Trypanosoma brucei) [nM] | IC50 [1] [nM] | also measured
Cc1nn(C)c(C)c1NS(=O)(=O)c1c(Cl)cc(CCCCC2CCN(C)CC2)cc1Cl | 180 | 0.5 | 1 | –
Cc1nn(C)c(C)c1N(C(F)F)S(=O)(=O)c1c(Cl)cc(CCCOC[C@@H]2CCCN2C)cc1Cl | 2800 | – | 2 | –
Cc1nn(C)c(C)c1NS(=O)(=O)c1ccc(CCCN2CCN(C)CC2)cc1 | > 50000 | 750 | 120 | IC50 [2]: 3500 nM; Selectivity Index [3]: 4.7
Cc1nn(C)c(C)c1N(C(F)F)S(=O)(=O)c1c(Cl)cc(CCCC2CCN(C)CC2)cc1Cl | – | – | – | IC50 [4]: 600 nM; inhibition [5]: Active; Activity (Mus musculus [6]): Toxic; MTD (Mus musculus [7]): 100 mg/kg
Cc1nn(C)c(C)c1N(CC(F)(F)F)[S+](=O)([O-])c1c(Cl)cc(CCCC2CCN(C)CC2)cc1Cl | – | – | – | Activity (Mus musculus [8]): Non-toxic; MTD [9]: 150 mg/kg
Cc1nn(C)c(C)c1NS(=O)(=O)c1c(Cl)cc(CCCC2CCN(C)CC2)cc1Cl | 2200 | 2 | 2 | –
Cc1nn(C)c(C)c1N(CC(F)(F)F)S(=O)(=O)c1c(Cl)cc(CCCC2CCN(C)CC2)cc1Cl | – | – | – | inhibition [10]: inactive
Cc1nn(C)c(C)c1N(C(F)F)S(=O)(=O)c1c(Cl)cc(CCCN2CCN3CCC[C@@H]3C2)cc1Cl | 3100 | – | 2 | –
Cc1nn(C)c(C)c1NS(=O)(=O)c1c(Cl)cc(CCCCC2CCNCC2)cc1Cl | 370 | 0.6 | 3 | –
Cc1nn(C)c(C)c1NS(=O)(=O)c1ccc(CCCC2CCNCC2)cc1 | > 50000 | 110 | 9 | –
Cc1nn(C)c(C)c1NS(=O)(=O)c1c(Cl)cc(C#Cc2cncn2C)cc1Cl | 16600 | 3900 | 660 | –
Cc1c(NS(=O)(=O)c2c(Cl)cc(-c3ccnc(N4CCNCC4)c3)cc2Cl)cnn1C | 1230 | 24 | – | –
Cc1nn(C)c(C)c1N(C(F)F)S(=O)(=O)c1c(Cl)cc(CCCOC[C@@H]2CCCCN2C)cc1Cl | 3900 | – | 2 | –
Cn1cc(NS(=O)(=O)c2c(Cl)cc(-c3ccnc(N4CCNCC4)c3)cc2Cl)cn1 | 10300 | 370 | – | –
Cc1nn(C)c(C)c1NS(=O)(=O)c1c(Cl)cc(-c2ccnc(N3CCNCC3)c2)cc1Cl | – | – | – | F (Mus musculus [11]): 20%; AUC (Mus musculus [12]): 392 µg/min/mL; Activity [13]: Active; fraction unbound [14]: 0.06; MCD [15]: 50 mg/kg; Activity [16]: Active
Cc1nn(C)c(CC(C)C)c1NS(=O)(=O)c1c(Cl)cc(-c2ccnc(N3CCNCC3)c2)cc1Cl | 640 | 5 | 6 | –
Cc1nn(C)c(C)c1N(C(F)F)S(=O)(=O)c1c(Cl)cc(CCCCC2CCN(C)CC2)cc1Cl | – | – | – | inhibition [17]: inactive; MCD [18]: 6 mg/kg; MCD [19]: 25 mg/kg; Activity (Mus musculus [20]): Toxic; inhibition [21]: inactive; Activity (Mus musculus [22]): Toxic; MTD (Mus musculus [7]): 50 mg/kg
Cc1nn(C)c(C)c1N(C(F)F)S(=O)(=O)c1c(Cl)cc(CCCOC[C@H]2CCCCN2C)cc1Cl | 3500 | – | 2 | –
Cc1nn(C)cc1NS(=O)(=O)c1c(Cl)cc(-c2ccnc(N3CCNCC3)c2)cc1Cl | 250 | 2 | 4 | –
Cc1nn(C)c(C)c1N(C)S(=O)(=O)c1c(Cl)cc(Br)cc1Cl | 27200 | 5100 | 330 | IC50 [2]: 3580 nM; Kp [23]: 3.7; Kp [24]: 3.7
Cc1nn(C)c(C)c1NS(=O)(=O)c1ccc(CCCC2CCN(C)CC2)cc1 | 18700 | 30 | 7 | –
Cc1nn(C)c(C)c1NS(=O)(=O)c1c(Cl)cc(CCCC2CCNCC2)cc1Cl | 2500 | 2 | 2 | –
Cc1nn(C)c(C)c1NS(=O)(=O)c1c(Cl)cc(CCCN2CCN(C)CC2)cc1Cl | 31400 | – | 3 | –
Cc1nn(C)c(C)c1N(C(F)F)S(=O)(=O)c1c(Cl)cc(CCCOC[C@H]2CCCN2C)cc1Cl | 3200 | – | 2 | –
Cc1nn(C)c(C)c1NS(=O)(=O)c1c(Cl)cc(C#CCN2CCN(C)CC2)cc1Cl | > 50000 | 660 | 160 | IC50 [2]: 4600 nM; Selectivity Index [3]: 7
Cc1nn(C)c(C)c1NS(=O)(=O)c1ccc(CCCCC2CCNCC2)cc1 | 5300 | 9 | 6 | –
Cc1nn(C)c(C)c1NS(=O)(=O)c1c(Cl)cc(Br)cc1Cl | > 50000 | 16000 | 500 | IC50 [2]: 7300 nM; Kp [23]: < 0.1; Kp [24]: < 0.1
Cc1nn(C)c(C)c1NS(=O)(=O)c1ccc(CCCCC2CCN(C)CC2)cc1 | 3600 | 16 | 3 | –
Cc1c(NS(=O)(=O)c2c(Cl)cc(-c3ccnc(N4CCNCC4)c3)cc2Cl)c(CC(C)C)nn1C [ZELENIRSTAT] | – | – | – | F (Mus musculus [11]): 93%; AUC (Mus musculus [12]): 3400 µg/min/mL; MCD [15]: 6 mg/kg
